Patent US9409944B2, “Compositions and methods for inhibiting proteases” (The Regents of the University of California, priority 2011, dated 2016)

Assays:
[1] = target: beta 5 subunit (chymotrypsin-like) of the Saccharomyces cerevisiae 20S proteasome (Saccharomyces cerevisiae, UniProt P30656); experiment: Inhibition of the beta 5 subunit (chymotrypsin-like) of the 20S proteasome; type: biochemical; settings: S. cerevisiae 20S proteasome, pure compound
Excerpt: (§1) We discovered the new natural products, compounds having formulas 1 and 2, from a collection of marine cyanobacteria obtained from Curaçao in the Netherland Antilles. We were led to isolate this compound from cancer cell toxicity of the extract and semi-purified fractions.

[2] = test system: human lung adenocarcinoma (H460) cells; experiment: Cytotoxicity to human lung adenocarcinoma (H460) cells; type: cell-based; settings: NCI-H460
Excerpt: as §1

Row | SMILES | IC50 [1] | EC50 [2]
1 | C[C@@]12OC(=O)[C@]1([C@@H](O)[C@@H]1C=CCCC1)NC(=O)[C@@H]2CCCl [salinosporamide A, reference compound] | 1.4 ± 0.2 nM | 
2 | CCCCCC(=O)N[C@H](C(=O)N[C@@H](CC[S+](C)[O-])C(=O)N[C@@H](CC(C)C)C(=O)[C@@]1(C)CO1)C(C)C (mixture of isomers) [Compound 1] | 5.3 ± 0.5 nM | 14.5 nM
